Measurements from patent publication US20240327364A1, “THERAPEUTIC TARGETING OF GPR68 TO INDUCE FERROPTOSIS” (University Of Maryland, Baltimore, priority 2023, published 2024).

Legend:
DP = molecular target: T1, DP (Homo sapiens, UniProt Q13258); experiment: GPCR Profiler; type: cell-based
T1 construct: host or cells: Chem-1 cells expressing Gα15

MAP4K2 = molecular target: T2, MAP4K2 (Homo sapiens, UniProt Q12851); experiment: KinomeScan; type: binding; conditions: read-out: % Control
T2 construct: purchased DiscoveRx (Fremont, CA)

[1] = molecular target: T3, RPS6KA5(Kin.Dom.1-N-terminal) (Homo sapiens, UniProt O75582); experiment: KinomeScan; type: binding; conditions: read-out: % Control
T3 construct: RPS6KA5(Kin.Dom.1-N-terminal); purchased DiscoveRx (Fremont, CA)

P2Y1 = molecular target: T4, P2Y1 (Homo sapiens, UniProt P47900); experiment: GPCR Profiler; type: cell-based
T4 construct: host or cells: Chem-1 cells expressing Gα15

5-HT4B = molecular target: T5, 5-HT4B (Homo sapiens, UniProt Q13639); experiment: GPCR Profiler; type: cell-based
T5 construct: host or cells: Chem-1 cells with promiscuous Gα15

Motilin = molecular target: T6, Motilin (Homo sapiens, UniProt O43193); experiment: GPCR Profiler; type: cell-based
T6 construct: host or cells: Chem-1 cells expressing Gα15

CDC2L2 = molecular target: T7, CDC2L2 (Homo sapiens, UniProt Q9UQ88); experiment: KinomeScan; type: binding; conditions: read-out: % Control
T7 construct: purchased DiscoveRx (KinomeScan service)

GSK3A = molecular target: T8, GSK3A (Homo sapiens, UniProt P49840); experiment: KinomeScan; type: binding; conditions: read-out: % Control
T8 construct: purchased DiscoveRx (Fremont, CA)

VPAC2 = molecular target: T9, VPAC2 (Homo sapiens, UniProt P41587); experiment: GPCR Profiler; type: cell-based
T9 construct: host or cells: Chem-1 cells expressing Galpha15

PAK6 = molecular target: T10, PAK6 (Homo sapiens, UniProt Q9NQU5); experiment: KinomeScan; type: binding; conditions: read-out: % Control
T10 construct: purchased DiscoveRx

FPR2 = molecular target: T11, FPR2 (Homo sapiens, UniProt P25090); experiment: GPCR Profiler; type: cell-based
T11 construct: host or cells: Chem-1 cells expressing Gα15

MOLM-14 = experiment: Cell Titer-Glo viability, Acute monocytic leukemia; type: cell-based
Protocol: (§1) OGM2 kills wide variety of cancer cell types. Cell sensitivity can be classified in to Very Sensitive (LC50<2 μM), Sensitive (LC50=2 to 10 μM), Mildly Sensitive (LC50>10 μM), and Refractory (no killing at 10 μM). The listed established cell were incubated with OGM2 at 2 μM or 10 μM for 72 hours under standard cell culture conditions, and relative cell number was assessed using Cell Titer-Glo Luminescent Cell Viability Assay (Promega™) following the manufacturer's instructions. Luminescence was determined using a Cytation 5 reader and Gen5 software package (BioTek™).
(§2) Cancer cells, which are very sensitive to killing by OGM2 (LCs <2 μM), with reported mRNA expression of GPR68 and the related proton sensing receptor GPR4. LC50's (concentrations causing 50% lethality) were determined using CellTiter-Glo (Promega™, G7570). Cells were plated in 12-well plates (CELLTREAT Scientific Products, 229112) in 1 ml of DMEM with high glucose, GlutaMAX, HEPES, or RPMI 1640 with Penicillin-Streptomycin (ThermoFisher™, 10564029, 11875119 and 15140122) and 10% FBS. Cells were incubated overnight at 37° C. in 5% CO2. Then 1 mL of fresh media was added with DMSO, OGM, or positive control (Erastin; APExBIO Technology, LLC, B1524) and cells incubated for 3 days. On the third day, all media was removed, cells were rinsed with 1×PBS, PBS was removed, and 200 μL of 1× Passive Lysis Buffer (Promega™, E1941) was added to each well. […]. Subsequently, 20 μL of lysate was added to 100 μL CellTiter-Glo™ reagent on a LUMITRAC 200 plate (Greiner™ bio-one, 82050-726). Plates were briefly spun down and read on a GloMax-Multi Detection System (Promega™).
(§3) The cells listed in the tables above were incubated with OGM2 at 2 μM or 10 μM for 72 hours under standard cell culture conditions, and relative cell number was assessed using Cell Titer-Glo Luminescent Cell Viability Assay (Promega™) following the manufacturer's instructions. Luminescence was determined using a Cytation 5 reader and Gen5 software package (BioTek™). RNA expression of GPR68 and GPR4 in the corresponding cancer cell lines are listed, according to the publicly available The Human Protein Atlas version 22.0 and Ensembl version 103.38 (see proteinatlas.org). The consensus normalized expression value (“nTPM”=normalize transcript per million) was calculated as the maximum nTPM value for each gene in the two data sources.

THP-1 = experiment: Cell Titer-Glo viability, Acute monocytic leukemia; type: cell-based; conditions: 72 hours
Protocol: as §1, §2, §3

U87 = experiment: 2D cell growth/viability; type: cell-based, human; conditions: 72 hours
Protocol: (§4) GBM neurospheres and low passage PDX models were plated in 96-well plates at 10,000 cells per well in 50 μL of neural stem cell media. The next day, the cells were treated with OGM2 compounds at the indicated concentrations, in triplicates, by adding an equal volume of medium containing 2× the final concentration of compound. Following 72 hours incubation under standard cell culture conditions, relative cell number was assessed using Cell Titer-Glo Luminescent Cell Viability Assay (Promega™) following the manufacturer's instructions. Luminescence was determined using a Cytation 5 reader and Gen5 software package (BioTek™). For U87 and U138 cell lines, one thousand cells were plated per well in a standard 96-well plate and allowed to attach for 24 hours before exposure to concentrations of vehicle, OGM2, or TMZ. Cells were treated for 72 hours and then stained with DAPI. A 10× magnification lens on a LionheartFX (BioTek™) was used to image the wells, and images were stitched together with Gen5 software (BioTek™). Automated nuclei counting was also done using the Gen5 software. Results reported as percent response relative to DMSO control. IC50 (the concentration causing 50% inhibition) was determined by GraphPad Prism™ version 6.07.
(§5) Temozolomide is the standard of care for glioblastoma but only works on 30% of patients. […]

U138 = experiment: 2D cell growth/viability; type: cell-based, human
Protocol: as §4, §5

T6 sequence (O43193 whole entry): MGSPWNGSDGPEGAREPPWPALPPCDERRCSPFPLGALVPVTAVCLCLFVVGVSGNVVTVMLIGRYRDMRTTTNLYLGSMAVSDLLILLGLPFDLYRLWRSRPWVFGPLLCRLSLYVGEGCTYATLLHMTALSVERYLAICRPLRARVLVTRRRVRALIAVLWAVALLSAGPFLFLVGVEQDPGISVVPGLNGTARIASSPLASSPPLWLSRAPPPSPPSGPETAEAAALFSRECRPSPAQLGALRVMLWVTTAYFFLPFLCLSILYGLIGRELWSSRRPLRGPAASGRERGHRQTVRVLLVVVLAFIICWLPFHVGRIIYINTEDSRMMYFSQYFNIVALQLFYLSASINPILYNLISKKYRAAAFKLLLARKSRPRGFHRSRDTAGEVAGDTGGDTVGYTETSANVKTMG
T9 sequence (P41587 24-438): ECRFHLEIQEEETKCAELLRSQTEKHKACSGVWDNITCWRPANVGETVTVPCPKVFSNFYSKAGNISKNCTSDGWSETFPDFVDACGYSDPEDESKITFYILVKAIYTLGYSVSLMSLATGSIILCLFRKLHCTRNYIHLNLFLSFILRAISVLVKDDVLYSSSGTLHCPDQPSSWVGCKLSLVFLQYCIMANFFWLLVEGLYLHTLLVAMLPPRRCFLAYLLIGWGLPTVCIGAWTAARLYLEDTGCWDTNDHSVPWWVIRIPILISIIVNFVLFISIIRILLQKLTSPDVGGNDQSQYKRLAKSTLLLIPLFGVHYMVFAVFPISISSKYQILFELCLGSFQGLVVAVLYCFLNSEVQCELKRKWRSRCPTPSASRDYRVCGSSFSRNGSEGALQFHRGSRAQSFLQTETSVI
T11 sequence (P25090 whole entry): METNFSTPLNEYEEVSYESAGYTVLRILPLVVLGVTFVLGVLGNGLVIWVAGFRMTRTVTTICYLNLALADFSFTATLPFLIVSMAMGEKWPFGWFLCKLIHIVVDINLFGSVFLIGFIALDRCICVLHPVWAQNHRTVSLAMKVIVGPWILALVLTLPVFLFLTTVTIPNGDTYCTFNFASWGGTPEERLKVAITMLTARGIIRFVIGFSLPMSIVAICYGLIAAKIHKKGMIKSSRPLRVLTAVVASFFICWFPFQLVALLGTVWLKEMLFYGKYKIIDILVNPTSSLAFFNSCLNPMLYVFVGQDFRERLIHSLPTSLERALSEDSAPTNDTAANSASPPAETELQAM
T1 sequence (Q13258 whole entry): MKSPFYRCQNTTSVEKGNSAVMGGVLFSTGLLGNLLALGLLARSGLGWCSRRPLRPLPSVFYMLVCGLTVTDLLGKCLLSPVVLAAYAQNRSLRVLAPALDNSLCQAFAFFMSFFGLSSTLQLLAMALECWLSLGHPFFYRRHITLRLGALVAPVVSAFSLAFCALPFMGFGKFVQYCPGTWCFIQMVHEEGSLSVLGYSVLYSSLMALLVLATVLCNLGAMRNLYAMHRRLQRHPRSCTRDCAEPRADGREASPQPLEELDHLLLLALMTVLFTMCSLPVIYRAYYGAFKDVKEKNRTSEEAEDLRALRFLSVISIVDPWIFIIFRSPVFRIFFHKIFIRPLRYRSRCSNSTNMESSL
T4 sequence (P47900 whole entry, species assumed): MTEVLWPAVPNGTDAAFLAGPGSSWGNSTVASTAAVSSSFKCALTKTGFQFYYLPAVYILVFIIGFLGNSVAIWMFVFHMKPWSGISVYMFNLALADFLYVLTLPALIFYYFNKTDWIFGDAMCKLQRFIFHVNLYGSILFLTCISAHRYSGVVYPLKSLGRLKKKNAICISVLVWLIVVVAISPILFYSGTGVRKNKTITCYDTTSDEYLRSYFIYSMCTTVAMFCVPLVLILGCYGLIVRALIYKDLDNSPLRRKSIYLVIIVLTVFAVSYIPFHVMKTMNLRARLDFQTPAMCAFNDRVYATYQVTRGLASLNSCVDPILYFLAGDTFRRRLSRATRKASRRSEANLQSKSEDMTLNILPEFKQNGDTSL
T5 sequence (Q13639 whole entry): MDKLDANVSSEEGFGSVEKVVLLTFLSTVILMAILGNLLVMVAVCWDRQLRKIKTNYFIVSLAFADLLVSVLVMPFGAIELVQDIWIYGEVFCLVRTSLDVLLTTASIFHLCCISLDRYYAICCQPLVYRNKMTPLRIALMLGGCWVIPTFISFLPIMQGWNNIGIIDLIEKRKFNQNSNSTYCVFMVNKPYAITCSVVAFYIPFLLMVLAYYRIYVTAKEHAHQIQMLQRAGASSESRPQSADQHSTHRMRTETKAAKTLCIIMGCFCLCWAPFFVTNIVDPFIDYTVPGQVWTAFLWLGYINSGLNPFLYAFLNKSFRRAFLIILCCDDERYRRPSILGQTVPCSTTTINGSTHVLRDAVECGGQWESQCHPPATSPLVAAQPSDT
T10 sequence (Q9NQU5 whole entry): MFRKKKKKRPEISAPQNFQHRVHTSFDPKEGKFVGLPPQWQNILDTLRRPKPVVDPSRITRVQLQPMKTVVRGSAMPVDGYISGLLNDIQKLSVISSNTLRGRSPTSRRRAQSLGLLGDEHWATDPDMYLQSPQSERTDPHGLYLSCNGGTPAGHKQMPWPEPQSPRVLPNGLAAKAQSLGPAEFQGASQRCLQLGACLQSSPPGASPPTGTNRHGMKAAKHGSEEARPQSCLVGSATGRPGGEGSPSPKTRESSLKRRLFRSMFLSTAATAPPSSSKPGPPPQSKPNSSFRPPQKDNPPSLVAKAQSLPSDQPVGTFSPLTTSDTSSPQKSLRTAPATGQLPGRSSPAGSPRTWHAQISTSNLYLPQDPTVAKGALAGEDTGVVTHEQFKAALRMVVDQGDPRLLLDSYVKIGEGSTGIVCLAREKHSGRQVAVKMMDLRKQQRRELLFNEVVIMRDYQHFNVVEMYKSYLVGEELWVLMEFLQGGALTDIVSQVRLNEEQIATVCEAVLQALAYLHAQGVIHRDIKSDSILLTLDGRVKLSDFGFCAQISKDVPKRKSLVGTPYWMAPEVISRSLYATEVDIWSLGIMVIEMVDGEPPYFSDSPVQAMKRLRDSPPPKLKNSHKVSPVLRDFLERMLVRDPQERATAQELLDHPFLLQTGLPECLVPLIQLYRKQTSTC
T2 sequence (Q12851 whole entry): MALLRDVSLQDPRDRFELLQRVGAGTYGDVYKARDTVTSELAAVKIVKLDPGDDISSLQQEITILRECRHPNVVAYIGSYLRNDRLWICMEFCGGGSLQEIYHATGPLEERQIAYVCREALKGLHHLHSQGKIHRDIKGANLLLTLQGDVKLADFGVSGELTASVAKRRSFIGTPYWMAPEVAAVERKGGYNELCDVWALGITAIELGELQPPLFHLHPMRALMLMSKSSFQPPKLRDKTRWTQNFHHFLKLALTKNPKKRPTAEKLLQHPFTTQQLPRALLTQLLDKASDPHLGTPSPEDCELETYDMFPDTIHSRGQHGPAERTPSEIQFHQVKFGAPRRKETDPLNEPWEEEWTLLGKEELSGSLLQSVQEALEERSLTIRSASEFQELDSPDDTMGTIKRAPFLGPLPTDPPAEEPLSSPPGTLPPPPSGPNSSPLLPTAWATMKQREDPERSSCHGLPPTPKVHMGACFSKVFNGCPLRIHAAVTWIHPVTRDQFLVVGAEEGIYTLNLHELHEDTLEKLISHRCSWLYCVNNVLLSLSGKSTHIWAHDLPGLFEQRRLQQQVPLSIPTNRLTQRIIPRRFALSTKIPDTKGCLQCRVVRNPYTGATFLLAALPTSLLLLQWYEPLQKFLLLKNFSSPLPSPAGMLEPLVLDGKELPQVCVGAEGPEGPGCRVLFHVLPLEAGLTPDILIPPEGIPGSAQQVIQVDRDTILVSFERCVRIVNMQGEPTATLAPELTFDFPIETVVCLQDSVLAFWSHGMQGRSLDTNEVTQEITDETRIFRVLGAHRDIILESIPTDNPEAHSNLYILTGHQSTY
T7 sequence (Q9UQ88 whole entry): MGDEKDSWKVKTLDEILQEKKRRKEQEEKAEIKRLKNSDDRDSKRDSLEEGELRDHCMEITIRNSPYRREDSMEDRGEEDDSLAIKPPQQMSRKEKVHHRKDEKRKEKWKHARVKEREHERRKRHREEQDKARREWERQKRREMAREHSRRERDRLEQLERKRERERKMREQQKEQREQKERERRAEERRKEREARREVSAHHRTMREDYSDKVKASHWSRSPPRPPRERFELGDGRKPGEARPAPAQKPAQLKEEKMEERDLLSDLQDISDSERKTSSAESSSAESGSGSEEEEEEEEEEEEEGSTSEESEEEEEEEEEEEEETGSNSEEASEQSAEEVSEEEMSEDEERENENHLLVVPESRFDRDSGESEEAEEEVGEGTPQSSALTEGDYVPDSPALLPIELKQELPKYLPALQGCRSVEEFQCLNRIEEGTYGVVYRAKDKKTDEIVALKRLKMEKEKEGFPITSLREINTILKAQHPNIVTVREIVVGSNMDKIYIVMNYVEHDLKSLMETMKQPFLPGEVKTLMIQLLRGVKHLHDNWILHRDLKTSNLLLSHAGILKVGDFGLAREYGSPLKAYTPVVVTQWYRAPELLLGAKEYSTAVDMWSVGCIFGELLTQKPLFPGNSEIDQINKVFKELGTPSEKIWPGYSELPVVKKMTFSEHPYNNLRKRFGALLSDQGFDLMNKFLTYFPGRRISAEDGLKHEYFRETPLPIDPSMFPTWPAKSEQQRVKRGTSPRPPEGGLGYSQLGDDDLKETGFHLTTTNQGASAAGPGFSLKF
T3 sequence (O75582 49-318 limits assumed): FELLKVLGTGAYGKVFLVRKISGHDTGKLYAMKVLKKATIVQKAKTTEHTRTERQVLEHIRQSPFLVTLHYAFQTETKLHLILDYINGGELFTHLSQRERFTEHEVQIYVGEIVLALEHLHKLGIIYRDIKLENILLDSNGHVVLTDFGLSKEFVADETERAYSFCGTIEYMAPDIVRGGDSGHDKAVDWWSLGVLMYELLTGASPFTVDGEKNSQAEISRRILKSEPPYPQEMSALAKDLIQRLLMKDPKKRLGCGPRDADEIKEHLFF

## CCc1ccc2c(c1)C1(NN=C(c3cccc4ccccc34)S1)C(=O)N2 (centres unmarked) [OGM1, 5-ethyl-5′-naphthalen-1-ylspiro[1H-indole-3,2′-3H-1,3,4-thiadiazole]-2-one]
DP; 10 uM
  Antagonism: −11.7
DP; 12.5 uM
  Agonism: 0.8
MAP4K2
  remaining binding at 10 µM: 83%
[1]
  remaining binding at 10 µM: 100%
P2Y1; 10 uM
  Antagonism: −6.3
P2Y1; 12.5 uM
  Agonism: 1.7
5-HT4B; 10 uM
  Antagonism: −24.1
5-HT4B; 12.5 uM
  Agonism: 4.1
Motilin; 10 uM
  Antagonism: −0.7
Motilin; 12.5 uM
  Agonism: 1
CDC2L2
  remaining binding at 10 µM: 93%
GSK3A
  remaining binding at 10 µM: 78%
VPAC2; 10 uM
  Antagonism: 6.9
VPAC2; 12.5 uM
  Agonism: 10.7
PAK6
  remaining binding at 10 µM: 89%
FPR2; 10 uM
  Antagonism: 23
FPR2; 12.5 uM
  Agonism: −0.4

## CCc1ccc2c(c1)C1(NN=C(c3ccccc3)S1)C(=O)N2 (centres unmarked) [OGM2]
MOLM-14
  Class: Sensitive (Sensitive (LC50=2 to 10 μM))
MOLM-14; 72 hours
  % Survival 2 μM OGM: 65.3%
  % Survival 10 μM OGM: 15.3%
MOLM-14; Homo sapiens, MOLM-14, 72 hours, read-out: LC50 (the source's name)
  CC50: 2000 to 10000 nM
THP-1
  % Survival 2 μM OGM: 33.0%
  % Survival 10 μM OGM: 9.4%
THP-1; Homo sapiens, THP-1, read-out: LC50 (the source's name)
  CC50: < 2000 nM
U87
  cell growth, comparison with Temozolomide: more potent inhibitor of U87 cell growth in 2D cell assay than Temozolomide
U138
  cell growth in 2D culture: caused dose-dependent inhibition of U138 cell growth
